Data from ChEMBL document CHEMBL1201862, “PubChem BioAssay data set” (2004).
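Method: 48-hour compound exposure of cells in 96-well plates, five concentrations, linear interpolation of endpoints. GI50 is the concentration that inhibits growth by half.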 Calls of active or inactive are those of the source. Cut-off read from the data, not from the text of the source: active = GI50 up to about 1.1 µM and inactive = higher.

Tests used:
Experiment in all cases: NCI-60 cell line screen, 48 h
SF-295 = system: SF-295
SF-539 = system: SF-539
NCI-H23 = system: NCI-H23
MOLT-4 = system: MOLT-4
HCT-15 = system: HCT-15
RXF 393 = system: RXF 393
SK-MEL-2 = system: SK-MEL-2
NCI-H460 = system: NCI-H460
OVCAR-4 = system: OVCAR-4
TK-10 = system: TK-10
K562 = system: K562
U-251 = system: U-251
EKVX = system: EKVX
IGROV-1 = system: IGROV-1
A549 = system: A549
A498 = system: A498
SK-MEL-28 = system: SK-MEL-28
PC-3 = system: PC-3
MDA-MB-231 = system: MDA-MB-231
T47D = system: T47D

Compound	GI50 (SF-295)	GI50 (SF-539)	GI50 (NCI-H23)	GI50 (MOLT-4)	GI50 (HCT-15) [µM]	GI50 (RXF 393)	GI50 (SK-MEL-2)	GI50 (NCI-H460)	GI50 (OVCAR-4)	GI50 (TK-10)	GI50 (K562)	GI50 (U-251)	GI50 (EKVX)	GI50 (IGROV-1)	GI50 (A549)	GI50 (A498)	GI50 (SK-MEL-28)	GI50 (PC-3)	GI50 (MDA-MB-231)	GI50 (T47D)
Cc1cc(=O)n(-c2ccccc2)c(=O)o1	49.5 µM (inactive)	> 100 µM (inactive)	> 100 µM (inactive)	> 100 µM (inactive)	> 100	> 100 µM (inactive)	> 100 µM (inactive)	> 100 µM (inactive)	> 100 µM (inactive)	> 100 µM (inactive)	> 100 µM (inactive)	> 100 µM (inactive)	> 100 µM (inactive)	> 100 µM (inactive)	> 100 µM (inactive)	> 100 µM (inactive)	> 100 µM (inactive)			
CCC1(CC)C(=O)NC(=S)N=C1N	> 100 µM (inactive)	> 100 µM (inactive)	> 100 µM (inactive)	> 100 µM (inactive)	> 100	> 100 µM (inactive)	> 100 µM (inactive)	> 100 µM (inactive)	> 100 µM (inactive)	> 100 µM (inactive)	> 100 µM (inactive)	> 100 µM (inactive)	> 100 µM (inactive)	> 100 µM (inactive)	> 100 µM (inactive)	> 100 µM (inactive)	> 100 µM (inactive)			
O=C(/N=C(\Nc1ccccc1)SCCS/C(=N/C(=O)c1cccs1)Nc1ccccc1)c1cccs1	52.7 µM (inactive)	> 100 µM (inactive)	46.2 µM (inactive)	24 µM (inactive)	44.6	22.6 µM (inactive)	94.6 µM (inactive)	31.6 µM (inactive)	30.3 µM (inactive)	> 100 µM (inactive)	35.2 µM (inactive)	96.6 µM (inactive)	92.5 µM (inactive)	> 100 µM (inactive)	41.8 µM (inactive)	56.9 µM (inactive)	49.9 µM (inactive)			
CC(=O)OC1[C@H](n2ccnc2)C[C@H]2[C@@H]3CC=C4CC(N5CCCC5)CC[C@]4(C)[C@H]3CC[C@]12C (some centres undefined)	20.5 µM (inactive)	14.1 µM (inactive)	60.3 µM (inactive)	17.3 µM (inactive)	21.3	11.7 µM (inactive)	20.3 µM (inactive)	6.71 µM (inactive)	87.3 µM (inactive)	88.1 µM (inactive)	17.1 µM (inactive)	55.3 µM (inactive)	70.1 µM (inactive)	43.7 µM (inactive)	41.4 µM (inactive)	32.7 µM (inactive)	21.2 µM (inactive)	34.4 µM (inactive)	66.2 µM (inactive)	
O=C1C(Br)=CC2(C=C1Br)CCNC1=C2C(=O)c2cccnc2C1=O	8.75 µM (inactive)	8.99 µM (inactive)	4.07 µM (inactive)	5.69 µM (inactive)	5.14	4.92 µM (inactive)	2.69 µM (inactive)	4.13 µM (inactive)	17.2 µM (inactive)	19.8 µM (inactive)	2.44 µM (inactive)	17.6 µM (inactive)	15 µM (inactive)	9.18 µM (inactive)	14.8 µM (inactive)		14.2 µM (inactive)	13.4 µM (inactive)	14.1 µM (inactive)	
Cc1ccccc1NC(=O)/C(=N\NC(N)=S)C(C#N)c1ccccc1 (centres undefined)	> 100 µM (inactive)	> 100 µM (inactive)	> 100 µM (inactive)	> 100 µM (inactive)	> 100	> 100 µM (inactive)	> 100 µM (inactive)	> 100 µM (inactive)	> 100 µM (inactive)	> 100 µM (inactive)	> 100 µM (inactive)	> 100 µM (inactive)	> 100 µM (inactive)	> 100 µM (inactive)	> 100 µM (inactive)	> 100 µM (inactive)	> 100 µM (inactive)			
CC(C)[C@H](COC(C)(C)C)/N=C/N1CSc2ccccc21	24.4 µM (inactive)	23.5 µM (inactive)	36.5 µM (inactive)	36.1 µM (inactive)	84.9	28.7 µM (inactive)	36.2 µM (inactive)	33 µM (inactive)	27.9 µM (inactive)	51.5 µM (inactive)	33.7 µM (inactive)	32.5 µM (inactive)	44.1 µM (inactive)	34 µM (inactive)	42 µM (inactive)	46.1 µM (inactive)	72.3 µM (inactive)			
Cc1cc(C[C@H]2O[C@@H]3OC(C)(C)O[C@@H]3[C@H]3OC(C)(C)O[C@H]32)c2ccccc2n1	> 100 µM (inactive)	> 100 µM (inactive)	52.7 µM (inactive)	31.8 µM (inactive)	76.4	39.1 µM (inactive)	36 µM (inactive)	30 µM (inactive)	> 100 µM (inactive)	> 100 µM (inactive)	48.1 µM (inactive)	> 100 µM (inactive)	79.6 µM (inactive)	49.8 µM (inactive)	63.4 µM (inactive)	> 100 µM (inactive)	> 100 µM (inactive)	40.1 µM (inactive)		63.5 µM (inactive)
COC(=O)C(Nc1ccc(OC)cc1)c1ccccc1 (centres undefined)	89.3 µM (inactive)	> 100 µM (inactive)	> 100 µM (inactive)	> 100 µM (inactive)	> 100		> 100 µM (inactive)	> 100 µM (inactive)		> 100 µM (inactive)	> 100 µM (inactive)		> 100 µM (inactive)	> 100 µM (inactive)	> 100 µM (inactive)		> 100 µM (inactive)	> 100 µM (inactive)		> 100 µM (inactive)
Cc1ccc(-c2cc(O)c3cc4c(cc3n2)OCO4)cc1	2.02 µM (inactive)	1.31 µM (inactive)	0.916 µM (active)	2.72 µM (inactive)	0.501	1.44 µM (inactive)	1.72 µM (inactive)	0.82 µM (active)	8.97 µM (inactive)	7.66 µM (inactive)	0.705 µM (active)	1.59 µM (inactive)	4.05 µM (inactive)	3.48 µM (inactive)	2.02 µM (inactive)	0.615 µM (active)	2.67 µM (inactive)			
COc1cc2c(cc1OC)[C@@H]([C@H](O)c1ccccc1)NCC2	> 100 µM (inactive)	> 100 µM (inactive)	> 100 µM (inactive)	> 100 µM (inactive)	> 100	> 100 µM (inactive)	> 100 µM (inactive)	> 100 µM (inactive)	> 100 µM (inactive)	> 100 µM (inactive)	> 100 µM (inactive)	> 100 µM (inactive)	> 97.7 µM (inactive)	> 100 µM (inactive)	> 100 µM (inactive)	> 100 µM (inactive)	> 100 µM (inactive)			
Cc1ccc(C(=O)/C=C2\Nc3ccccc3N=C2NC23CC4CC(CC(C4)C2)C3)cc1	> 10 µM (inactive)	> 10 µM (inactive)	> 10 µM (inactive)	7.8 µM (inactive)	> 10				7.66 µM (inactive)	> 10 µM (inactive)	> 10 µM (inactive)	> 10 µM (inactive)		> 10 µM (inactive)	> 10 µM (inactive)		> 10 µM (inactive)	> 10 µM (inactive)	> 10 µM (inactive)	> 10 µM (inactive)
COC(=O)C(=O)C(C(=O)C(=O)Nc1ccc(C)cc1C)c1nc2ccccc2nc1O (centres undefined)	> 100 µM (inactive)	36.6 µM (inactive)	66.8 µM (inactive)	32.4 µM (inactive)	31.6	17.8 µM (inactive)	54.3 µM (inactive)	85.5 µM (inactive)	> 100 µM (inactive)	22.1 µM (inactive)	42.5 µM (inactive)	57.1 µM (inactive)	17.9 µM (inactive)	32.5 µM (inactive)	31.7 µM (inactive)	19.5 µM (inactive)	51.9 µM (inactive)			
c1ccc2c(c1)nc1ccccn12	> 100 µM (inactive)	> 100 µM (inactive)	> 100 µM (inactive)	> 100 µM (inactive)	> 100	> 100 µM (inactive)		> 100 µM (inactive)		> 100 µM (inactive)	> 100 µM (inactive)	> 100 µM (inactive)	> 100 µM (inactive)	> 100 µM (inactive)	> 100 µM (inactive)	1.37 µM (inactive)	> 100 µM (inactive)	> 100 µM (inactive)		> 100 µM (inactive)
Cn1c(C(C#N)c2cc(Cl)ncn2)nc2ccccc21 (centres undefined)	> 100 µM (inactive)	> 100 µM (inactive)	> 100 µM (inactive)	> 100 µM (inactive)	> 100	> 100 µM (inactive)		> 100 µM (inactive)	> 100 µM (inactive)	> 100 µM (inactive)		> 100 µM (inactive)	> 100 µM (inactive)	> 100 µM (inactive)	> 100 µM (inactive)	> 100 µM (inactive)	> 100 µM (inactive)		> 100 µM (inactive)	> 100 µM (inactive)
CCC[C@H]1C(=O)N=C(N)N1C(=O)OCc1ccccc1	> 100 µM (inactive)	> 100 µM (inactive)	> 100 µM (inactive)	> 100 µM (inactive)	> 100	> 100 µM (inactive)	> 100 µM (inactive)	> 100 µM (inactive)	> 100 µM (inactive)	> 100 µM (inactive)	> 100 µM (inactive)	> 100 µM (inactive)	> 100 µM (inactive)	> 100 µM (inactive)		> 100 µM (inactive)	> 100 µM (inactive)	> 100 µM (inactive)	> 100 µM (inactive)	
